The values below come from patent US6228889A, “Methods for treatment of conditions associated with lactosylceramide” (priority 1999, dated 2001).

The subject of one data set is restenosis. The conditions noted are these: patients, reported in literature; cited from earlier work.
In data set [1] the test system is neutrophil adhesion to Eahy 926 cells. Kind of data set: Confocal microscopic study of adhesion of human neutrophils to Eahy 926 endothelial cells. It is filed as cell-based. The note with it: LacCer 5 μM, 4 hours.
For a further data set, the system named is VCAM-1. The experiment in a line: VCAM-1 expression in Eahy 926. The class given is cell-based, human. The conditions noted are these: Eahy 926, LacCer.
For data set [2], the system named is PMNs. The experiment in a line: [3H] arachidonic acid release from labeled PMNs. The class given is cell-based, human. The conditions noted are these: 100 nmol/L LacCer, 30 minutes at 37° C.
Data set [3] concerns PMNs. Kind of data set: Superoxide generation in PMNs (lucigenin). The class given is cell-based, human. The note with it: 100 nmol LacCer 20 minutes, no inhibitor, PMNs.
Another data set concerns P-selectin. The experiment in a line: P-selectin expression in Eahy 926. It is filed as cell-based, human. The note with it: Eahy 926, LacCer.
For a further data set, the system named is p150,95. The experiment in a line: Flowcytometric analysis of p150,95 expression on PMNs. It is filed as cell-based, human. The conditions noted are these: 20 minutes. On the procedure:
(§1) 10. Flowcytometric Analysis of the Expression of Adhesion Molecules on PMNs. Treated PMNs were rapidly cooled on ice, washed twice with cold washing buffer (PBS containing 0.1% BSA and 0.1% sodium azide), and then incubated with either monoclonal (m) anti-human (h) LFA-1 (CD11 a), m-anti-h Mac-1 (CD 11b), m-anti-h p150,95 (CD 11 c) or m-anti-h L-selectin (all from PharMingen., San Diego, Calif.), followed by FITC-conjugated m-anti-mouse IgG (American Qualex, San Clement, Calif.). The PMNs were gated by forward and side scattering for analysis by FACScan (Becton Dickinson, Cockeysville, Md.).

The subject of another data set is NADH oxidase. Kind of data set: NADH oxidase assay in membrane preparations of Eahy 926 cells. The conditions noted are these: 5 μM LacCer. It is filed as biochemical, human.
Another data set has as its system Mac-1 (CD11b/CD18). The note with it: pmns, 20 min, 0.1 µM.
Another data set has as its system NF-kB. The experiment in a line: NF-kB DNA binding assay (gel mobility shift) in Eahy 926 cells. The note with it: 5 μM LacCer. The class given is cell-based, human.
Another data set concerns L-selectin. The experiment in a line: Flowcytometric analysis of L-selectin expression on PMNs. The conditions noted are these: 20 minutes. The class given is cell-based, human. On the procedure:
as §1

The test system of another data set is Eahy 926 cells. Kind of data set: Superoxide production by intact Eahy 926 (lucigenin chemiluminescence). The conditions noted are these: 5 μM LacCer after 5 minutes, intact Eahy 926 cells. It is filed as cell-based, human.
Data set [4] relates to PMNs. The experiment in a line: ROM generation by PMNs (DCFH-DA). It is filed as cell-based, human. The conditions noted are these: DCFH-DA, 45 minutes.
For a further data set, the system named is NADPH oxidase. The note with it: eahy 926 cell membranes, 5 min, 5 µM.
A further data set relates to CD11a/CD18 (LFA-1). Kind of data set: Flowcytometric analysis of LFA-1 expression on PMNs. The class given is cell-based, human. The note with it: 20 minutes. Here is the method:
as §1

Data set [5] concerns PMN adhesion to unstimulated endothelial cells. Kind of data set: PMN-endothelial adhesion assay. The conditions noted are these: PMNs incubated with LacCer, washed. The class given is cell-based, human. Here is the method:
12. PMN-Endothelial Adhesion Assay. PMNs were labeled fluorescently by incubation with 5 μmol/L Calcein-AM (Molecular Probes) in calcium-free PBS for 20 minutes at 37° C., washed and resuspended in Hanks' balanced salt solution (Gibco) containing 0.2% bovine serum albumin (BSA). These PMNs were then treated with LacCer (or vehicle, 0.05% DMSO), washed 3 times with PBS and then plated on the unstimulated ec monolayers, which had been grown to confluence in 24-well plates. The PMNs (600 μL of 2×10^6 /mL/well) then were incubated with the ecs for 30 minutes at 37° C. Non-adherent PMNs were then removed by gentle washing 3 times with PBS. The residual adherent PMNs (and ecs) were then lysed using 4mmol/L Zwittergent Calbiochem, La Jolla, Calif.) and the plates read on a fluorescence plate reader (Millipore) at EX 480 nm/EM 530 nm. The number of adherent PMNs were expressed as number of PMN/mm^2 ec monolayer, based on the mean fluorescent intensity of each PMN, as determined from a standard curve. 13. Additional Methods. LacCer, ceramide and […] (all from Sigma) were prepared as described in examples below, and used as putative agonists for the stimulation of PMN adhesion molecule expression, assayed by FACScan. […]

Regarding `CC(C)(Sc1cc(C(C)(C)C)c(O)c(C(C)(C)C)c1)Sc1cc(C(C)(C)C)c(O)c(C(C)(C)C)c1` [probucol], in the data set on restenosis, the restenosis after angioplasty entry is “reduce restenosis in some patients”.
lactosylceramide [LacCer]: the “adhesion of neutrophils to the endothelial cell monolayer” value in data set [1] is given as “markedly stimulated”. The “expression of VCAM-1” value in the data set on VCAM-1 is on record as “did not stimulate measurable expression”. Moreover, in the data set with PMNs [2], the “[3H] AA release from labeled PMNs” value is “increased”. For the same compound, the “superoxide levels compared with controls” value with PMNs [3] is recorded as “about two”. For the same compound, in the data set on P-selectin, the “expression of P-selectin” value is recorded as “did not stimulate measurable expression”. Moreover, in the data set with ICAM-1 (eahy 926 cells, 6 h, 5 µM), the “maximal expression of ICAM-1 as compared to control” value was 7 fold. The “stimulation of ICAM-1 expression by GSLs” value with ICAM-1 (intact Eahy 926 cells, GSLs 10 μM, gangliosides up to 50 μM) is “specifically stimulated”. The “level of p150,95” value with p150,95 (LacCer 200 nmol/L) was “decreased”; in the data set with p150,95 (LacCer 50-100 nmol/L), “increased”. Moreover, in the data set with NADH oxidase, the “NADH oxidase activity in LacCer stimulated/non stimulated membrane preparations” value was “remained unchanged”. In the data set with Mac-1 (CD11b/CD18), the “maximum stimulation of Mac-1 level compared to control” value turned out to be 2.5 fold. Besides, the “nuclear concentration of NF-kB” value in the data set on NF-kB is “time dependent increase”. The “level of L-selectin” value in the data set on L-selectin (LacCer higher concentrations) was “downregulated”; in the data set with L-selectin (LacCer lower concentrations), “did not change”. Also, the “maximum generation of O2-” value in the data set on Eahy 926 cells is 2.7 nmol/mni/mg protein. Also, the “ROM stimulation in PMNs” value with PMNs [4] is reported as “positive, dose-dependent response”. In the data set on NADPH oxidase, the “stimulation of NADPH oxidase activity versus non-stimulated cell membrane preparations” value is reported as “about 3 fold”. Further, the “level of CD11a/CD18 (LFA-1)” value in the data set on CD11a/CD18 (LFA-1) (LacCer higher concentrations) is “downregulated”; in the data set on CD11a/CD18 (LFA-1) (LacCer lower concentrations) it was “did not change”. For the same compound, the “PMN adhesion to unstimulated ec monolayers” value in [5] is “increased”.
